Measured values: PMC10017709, “Structural basis of selective cannabinoid CB2 receptor activation” (Nature Communications, 2023)
Values joined by “and” are separate entries in the source; they are usually repeats but may differ in a detail not shown here. Identical values can stand only once. Like-named read-outs stand apart in the source and are kept apart here.

Key:
[1] = molecular target: T1, hCB2R (Homo sapiens, UniProt P34972); assay: [3H]RO6957022 displacement assay; assay type: binding; conditions: individual replicates
T1 construct: host or cells: CHO-K1 (CHOK1_hCB2bgal, PathHunter), membranes
T1 sequence (P34972 whole entry): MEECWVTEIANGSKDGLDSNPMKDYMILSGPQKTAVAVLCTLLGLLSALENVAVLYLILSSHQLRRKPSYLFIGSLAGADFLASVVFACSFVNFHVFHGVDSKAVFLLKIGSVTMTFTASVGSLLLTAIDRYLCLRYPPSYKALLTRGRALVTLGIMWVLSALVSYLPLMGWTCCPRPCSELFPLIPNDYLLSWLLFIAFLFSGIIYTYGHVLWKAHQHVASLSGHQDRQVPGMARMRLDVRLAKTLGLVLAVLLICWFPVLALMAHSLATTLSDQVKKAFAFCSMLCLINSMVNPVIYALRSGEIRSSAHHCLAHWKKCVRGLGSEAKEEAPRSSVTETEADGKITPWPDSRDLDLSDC

[2] = molecular target: T1, hCB2R; assay: [3H]RO6957022 competition association assay; assay type: binding; conditions: individual replicates
[3] = molecular target: CB2R WT (Homo sapiens, UniProt P34972); assay: [35S]GTPγS G protein activation assay, CB2R WT; assay type: biochemical; conditions: for Emax: CB2R WT, read-out: Emax (%); for [35S]GTPγS binding, percentage of CP55,940: individual replicates
Chain of CB2R WT (P34972 whole entry): as above

[4] = molecular target: CB2R-I110^3.29L (Homo sapiens, UniProt P34972, I110L); assay: [35S]GTPγS assay, CB2R I110L mutant; assay type: biochemical; conditions: for [35S]GTPγS binding: I1103.29L, individual replicates
Chain of CB2R-I110^3.29L (P34972 whole entry I110L): as the sequence (P34972 whole entry) above, with I110L counted along it

[5] = molecular target: CB2R-I110^3.29A (Homo sapiens, UniProt P34972, I110A); assay: [35S]GTPγS assay, CB2R I110A mutant; assay type: biochemical; conditions: for [35S]GTPγS binding: I1103.29A, individual replicates
Chain of CB2R-I110^3.29A (P34972 whole entry I110A): as the sequence (P34972 whole entry) above, with I110A counted along it

percentage specific [3H]RO6957022 binding (displacement) ([1]; log [agonist] (M) -5): 6.59% and 5.28% and -3.87%
percentage specific [3H]RO6957022 binding (displacement) ([1]; log [agonist] (M) -6): 1.67% and 12.98% and 3.83%
percentage specific [3H]RO6957022 binding (displacement) ([1]; log [agonist] (M) -7): 44.82% and 59.70% and 42.04%
percentage specific [3H]RO6957022 binding (displacement) ([1]; log [agonist] (M) -7.5): 76.53% and 76.83% and 76.84%
percentage specific [3H]RO6957022 binding (displacement) ([1]; log [agonist] (M) -8): 102.92% and 92.08% and 89.96%
percentage specific [3H]RO6957022 binding (displacement) ([1]; log [agonist] (M) -9): 120.09% and 94.02% and 99.12%
percentage specific [3H]RO6957022 binding (competition association) ([2]; Time 1 min): -7.10% and 4.75% and 12.65%
percentage specific [3H]RO6957022 binding (competition association) ([2]; Time 3 min): 13.92% and 19.07% and 26.36%
percentage specific [3H]RO6957022 binding (competition association) ([2]; Time 5 min): 13.96% and 13.94% and 24.44%
percentage specific [3H]RO6957022 binding (competition association) ([2]; Time 7 min): 24.14% and 47.87% and 28.29%
percentage specific [3H]RO6957022 binding (competition association) ([2]; Time 10 min): 24.18% and 36.84% and 30.72%
percentage specific [3H]RO6957022 binding (competition association) ([2]; Time 20 min): 40.15% and 32.14% and 34.58%
percentage specific [3H]RO6957022 binding (competition association) ([2]; Time 30 min): 39.61% and 32.25% and 36.63%
percentage specific [3H]RO6957022 binding (competition association) ([2]; Time 45 min): 20.89% and 29.77% and 37.77%
percentage specific [3H]RO6957022 binding (competition association) ([2]; Time 60 min): 31.24% and 38.79% and 36.98%
percentage specific [3H]RO6957022 binding (competition association) ([2]; Time 90 min): 31.73% and 32.90% and 39.73%
percentage specific [3H]RO6957022 binding (competition association) ([2]; Time 120 min): 27.67% and 36.63% and 31.55%
Emax ([3]; maximum effect at 10 µM compared to WT (Suppl. Table 6)): 109 ± 3%
Emax ([3]; maximum effect compared to CP55,940): 134 ± 12%
[35S]GTPγS binding, percentage of CP55,940 ([3]; log [agonist] (M) -5): 148.28% and 110.29% and 144.01%
[35S]GTPγS binding, percentage of CP55,940 ([3]; log [agonist] (M) -6): 121.47% and 91.68% and 110.37%
[35S]GTPγS binding, percentage of CP55,940 ([3]; log [agonist] (M) -7): 71.38% and 61.86% and 107.40%
[35S]GTPγS binding, percentage of CP55,940 ([3]; log [agonist] (M) -8): 40.70% and 28.22% and 92.24%
[35S]GTPγS binding, percentage of CP55,940 ([3]; log [agonist] (M) -9): -4.49% and -11.58% and 35.79%
[35S]GTPγS binding, percentage of CP55,940 ([3]; log [agonist] (M) -10): 14.57% and -14.11% and 7.29%
Emax ([4]; I110L mutant, at 10 µM compared to WT, read-out: Emax (%)): 101 ± 7%
Emax ([5]; I110A mutant, at 10 µM compared to WT, read-out: Emax (%)): 28 ± 9%
Compound: CC(C)(C)[C@@H](CO)NC(=O)c1nn(-c2c[n+]([O-])ccn2)c2c1C[C@@H]1C[C@H]21 [APD371]
[35S]GTPγS binding ([4]; log [ligand] (M) -5): 88.75 percentage of WT and 114.10 percentage of WT and 98.70 percentage of WT
[35S]GTPγS binding ([4]; log [ligand] (M) -6): 65.58 percentage of WT and 82.80 percentage of WT and 68.20 percentage of WT
[35S]GTPγS binding ([4]; log [ligand] (M) -7): 37.92 percentage of WT and 48.30 percentage of WT and 43.20 percentage of WT
[35S]GTPγS binding ([4]; log [ligand] (M) -8): 16.04 percentage of WT and -5.10 percentage of WT and 25.10 percentage of WT
[35S]GTPγS binding ([4]; log [ligand] (M) -9): 37.59 percentage of WT and -1.70 percentage of WT and -8.60 percentage of WT
[35S]GTPγS binding ([4]; log [ligand] (M) -10): -2.00 percentage of WT and -5.20 percentage of WT
[35S]GTPγS binding ([5]; log [ligand] (M) -5): 8.02 percentage of WT and 49.60 percentage of WT and 23.20 percentage of WT and 29.78 percentage of WT
[35S]GTPγS binding ([5]; log [ligand] (M) -6): -6.90 percentage of WT and 31.60 percentage of WT and 8.00 percentage of WT and 14.76 percentage of WT
[35S]GTPγS binding ([5]; log [ligand] (M) -7): -11.72 percentage of WT and 23.80 percentage of WT and 1.10 percentage of WT and 21.50 percentage of WT
